Laboratory results reported in patent US9546355B2, “Conditional replicating cytomegalovirus as a vaccine for CMV” (Merck Sharp & Dohme Corp., priority 2011, dated 2017).

Columns and labels:
[1] = system: ARPE-19 cells; test: Shield-1 concentration dependent progeny virus production (TCID50 assay); assay type: cell-based; settings: rdCMV in ARPE-19 cells and other human primary cells
Procedure: ARPE-19 cells were infected with the rdCMV viruses at a multiplicity of 0.01 PFU/cell for 1 h, washed twice with fresh medium, and incubated in the growth medium containing 0, 0.05, 0.1 0.5 or 2 μM of Shield-1. Seven days post infection, the cell free virus was collected, and virus titers were determined by TCID50 assay on ARPE-19 cells in the presence of 2 μM of Shield 1.
Varying concentrations of Shld-1 were used in additional experiments to further assess viral replication in the presence or absence of Shld-1. ARPE-19 cells were infected by the gH expressing CMV that also contained a FKBP derivative fused to an essential protein at MOI of […]. After infection for 1 hour, the cells were washed twice with fresh medium to remove the Shld-1 from the inoculums. The inoculums were then added to ARPE-19 cells cultured in medium containing 0.05, 0.1, 0.5 or 2 μM of Shield-1. Seven days post infection, the cell-free progeny virus in the supernatant was collected and titrated on ARPE-19 cells supplemented with […] of Shield-1. Virus titers were determined by a 50% Tissue Culture Infective Dose (TCID50) assay. Briefly, this dilution assay quantifies the amount of virus required to kill 50% of infected hosts. […] After incubation, the percentage of cell death (i.e. infected cells) was manually observed and recorded for each virus dilution. […]

[2] = system: FKBP; settings: tighter binding; Clackson et al., 1998; cited from earlier work

## CC[C@H](C(=O)N1CCCC[C@H]1C(=O)O[C@H](CCc1ccc(OC)c(OC)c1)c1cccc(OCCN2CCOCC2)c1)c1cc(OC)c(OC)c(OC)c1 [Shield-1]
[1]
  Molar concentration of Shield-1 in the culture medium required to sustain viral replication: greater than 0.1 μM
[2]
  Binding to the F36V derivative compared to wild-type FKBP: about 1,000 fold
